Data as given in ChEMBL document CHEMBL5291721, “A preclinical secondary pharmacology resource illuminates target-adverse drug reaction associations of marketed drugs” (Nat Commun, 2023).

Assays:
[1] = molecular target: T1, Estrogen receptor (Homo sapiens, UniProt P03372); format: functional
T1 sequence (P03372 whole entry): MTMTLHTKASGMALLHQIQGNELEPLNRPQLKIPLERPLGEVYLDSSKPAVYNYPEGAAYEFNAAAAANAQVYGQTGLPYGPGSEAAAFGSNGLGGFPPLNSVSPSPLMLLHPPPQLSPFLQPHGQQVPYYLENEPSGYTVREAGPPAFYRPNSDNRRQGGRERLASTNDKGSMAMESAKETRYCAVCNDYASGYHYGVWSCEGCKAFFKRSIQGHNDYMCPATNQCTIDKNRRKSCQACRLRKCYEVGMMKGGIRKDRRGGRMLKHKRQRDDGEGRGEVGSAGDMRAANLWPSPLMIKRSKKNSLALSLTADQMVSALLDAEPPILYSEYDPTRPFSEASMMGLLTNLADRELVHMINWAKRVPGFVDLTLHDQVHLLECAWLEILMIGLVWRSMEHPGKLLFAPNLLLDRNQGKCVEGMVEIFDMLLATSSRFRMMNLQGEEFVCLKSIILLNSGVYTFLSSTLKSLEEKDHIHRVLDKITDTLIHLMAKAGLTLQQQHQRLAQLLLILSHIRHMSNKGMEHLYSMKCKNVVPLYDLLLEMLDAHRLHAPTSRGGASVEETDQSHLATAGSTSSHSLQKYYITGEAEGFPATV

[2] = molecular target: T1, Estrogen receptor
[3] = molecular target: T2, Glucocorticoid receptor (Homo sapiens, UniProt P04150); format: functional
T2 sequence (P04150 whole entry): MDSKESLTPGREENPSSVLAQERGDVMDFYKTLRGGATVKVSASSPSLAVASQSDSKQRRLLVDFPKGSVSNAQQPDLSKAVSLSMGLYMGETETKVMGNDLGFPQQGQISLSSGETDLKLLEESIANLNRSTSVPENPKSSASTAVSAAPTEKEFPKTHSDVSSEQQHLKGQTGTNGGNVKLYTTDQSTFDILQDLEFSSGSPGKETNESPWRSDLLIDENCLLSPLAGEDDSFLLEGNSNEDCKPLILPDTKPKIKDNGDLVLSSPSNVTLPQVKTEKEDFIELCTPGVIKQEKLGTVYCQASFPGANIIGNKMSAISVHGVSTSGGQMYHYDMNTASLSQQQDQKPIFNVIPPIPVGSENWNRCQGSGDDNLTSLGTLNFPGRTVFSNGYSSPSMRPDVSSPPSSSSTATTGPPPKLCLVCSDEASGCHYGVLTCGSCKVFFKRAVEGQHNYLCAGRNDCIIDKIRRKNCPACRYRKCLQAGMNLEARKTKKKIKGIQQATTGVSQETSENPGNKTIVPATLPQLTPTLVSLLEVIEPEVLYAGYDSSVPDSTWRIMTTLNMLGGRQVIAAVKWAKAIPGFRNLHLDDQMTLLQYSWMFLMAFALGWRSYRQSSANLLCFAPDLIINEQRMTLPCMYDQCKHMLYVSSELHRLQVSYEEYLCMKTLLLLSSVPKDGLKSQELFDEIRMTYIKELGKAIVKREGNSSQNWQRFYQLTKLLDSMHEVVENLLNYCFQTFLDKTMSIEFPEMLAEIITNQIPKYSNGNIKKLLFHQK

[4] = molecular target: Neurotensin receptor type 1 (Homo sapiens, UniProt P30989)
Neurotensin receptor type 1, sequence (P30989 whole entry): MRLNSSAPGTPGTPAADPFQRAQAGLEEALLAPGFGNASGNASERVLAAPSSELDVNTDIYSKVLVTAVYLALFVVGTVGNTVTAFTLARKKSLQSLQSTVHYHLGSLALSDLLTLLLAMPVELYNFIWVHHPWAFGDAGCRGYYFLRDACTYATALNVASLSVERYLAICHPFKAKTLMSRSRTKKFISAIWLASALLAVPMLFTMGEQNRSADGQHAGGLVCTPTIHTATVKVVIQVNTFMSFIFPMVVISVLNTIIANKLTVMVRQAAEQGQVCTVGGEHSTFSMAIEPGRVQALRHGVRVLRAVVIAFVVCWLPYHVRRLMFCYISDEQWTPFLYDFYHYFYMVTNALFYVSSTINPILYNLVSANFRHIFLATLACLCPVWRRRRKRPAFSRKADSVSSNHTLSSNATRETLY

[5] = molecular target: T3, Corticotropin-releasing factor receptor 2 (Homo sapiens, UniProt Q13324)
T3 sequence (Q13324 whole entry): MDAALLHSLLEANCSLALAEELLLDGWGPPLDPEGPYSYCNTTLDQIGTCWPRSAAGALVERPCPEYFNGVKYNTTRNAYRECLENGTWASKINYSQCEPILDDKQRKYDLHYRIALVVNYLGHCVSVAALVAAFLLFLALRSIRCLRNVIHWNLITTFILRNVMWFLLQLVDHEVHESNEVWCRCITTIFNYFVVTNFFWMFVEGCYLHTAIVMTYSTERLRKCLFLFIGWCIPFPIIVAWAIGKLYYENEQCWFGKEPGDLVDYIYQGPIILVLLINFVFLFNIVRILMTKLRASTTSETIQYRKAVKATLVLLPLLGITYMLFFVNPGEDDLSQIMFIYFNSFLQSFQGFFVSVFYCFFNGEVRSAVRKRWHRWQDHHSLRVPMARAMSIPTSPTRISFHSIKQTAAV

[6] = molecular target: T4, Gastric inhibitory polypeptide receptor (Homo sapiens, UniProt P48546)
T4 sequence (P48546 whole entry): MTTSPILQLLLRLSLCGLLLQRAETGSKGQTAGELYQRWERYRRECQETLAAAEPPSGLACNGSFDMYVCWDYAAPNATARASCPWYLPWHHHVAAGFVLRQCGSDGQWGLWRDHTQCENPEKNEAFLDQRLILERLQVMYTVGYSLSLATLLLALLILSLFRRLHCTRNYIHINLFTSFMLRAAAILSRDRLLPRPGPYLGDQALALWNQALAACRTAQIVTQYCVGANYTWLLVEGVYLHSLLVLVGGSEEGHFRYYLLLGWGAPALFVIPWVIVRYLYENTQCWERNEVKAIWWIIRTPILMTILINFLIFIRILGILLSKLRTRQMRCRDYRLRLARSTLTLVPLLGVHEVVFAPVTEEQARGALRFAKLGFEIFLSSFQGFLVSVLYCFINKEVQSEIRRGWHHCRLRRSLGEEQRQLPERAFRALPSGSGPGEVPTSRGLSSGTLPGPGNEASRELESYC

[7] = molecular target: Vascular endothelial growth factor receptor 2 (Homo sapiens, UniProt P35968); format: functional
Vascular endothelial growth factor receptor 2, sequence (P35968 whole entry): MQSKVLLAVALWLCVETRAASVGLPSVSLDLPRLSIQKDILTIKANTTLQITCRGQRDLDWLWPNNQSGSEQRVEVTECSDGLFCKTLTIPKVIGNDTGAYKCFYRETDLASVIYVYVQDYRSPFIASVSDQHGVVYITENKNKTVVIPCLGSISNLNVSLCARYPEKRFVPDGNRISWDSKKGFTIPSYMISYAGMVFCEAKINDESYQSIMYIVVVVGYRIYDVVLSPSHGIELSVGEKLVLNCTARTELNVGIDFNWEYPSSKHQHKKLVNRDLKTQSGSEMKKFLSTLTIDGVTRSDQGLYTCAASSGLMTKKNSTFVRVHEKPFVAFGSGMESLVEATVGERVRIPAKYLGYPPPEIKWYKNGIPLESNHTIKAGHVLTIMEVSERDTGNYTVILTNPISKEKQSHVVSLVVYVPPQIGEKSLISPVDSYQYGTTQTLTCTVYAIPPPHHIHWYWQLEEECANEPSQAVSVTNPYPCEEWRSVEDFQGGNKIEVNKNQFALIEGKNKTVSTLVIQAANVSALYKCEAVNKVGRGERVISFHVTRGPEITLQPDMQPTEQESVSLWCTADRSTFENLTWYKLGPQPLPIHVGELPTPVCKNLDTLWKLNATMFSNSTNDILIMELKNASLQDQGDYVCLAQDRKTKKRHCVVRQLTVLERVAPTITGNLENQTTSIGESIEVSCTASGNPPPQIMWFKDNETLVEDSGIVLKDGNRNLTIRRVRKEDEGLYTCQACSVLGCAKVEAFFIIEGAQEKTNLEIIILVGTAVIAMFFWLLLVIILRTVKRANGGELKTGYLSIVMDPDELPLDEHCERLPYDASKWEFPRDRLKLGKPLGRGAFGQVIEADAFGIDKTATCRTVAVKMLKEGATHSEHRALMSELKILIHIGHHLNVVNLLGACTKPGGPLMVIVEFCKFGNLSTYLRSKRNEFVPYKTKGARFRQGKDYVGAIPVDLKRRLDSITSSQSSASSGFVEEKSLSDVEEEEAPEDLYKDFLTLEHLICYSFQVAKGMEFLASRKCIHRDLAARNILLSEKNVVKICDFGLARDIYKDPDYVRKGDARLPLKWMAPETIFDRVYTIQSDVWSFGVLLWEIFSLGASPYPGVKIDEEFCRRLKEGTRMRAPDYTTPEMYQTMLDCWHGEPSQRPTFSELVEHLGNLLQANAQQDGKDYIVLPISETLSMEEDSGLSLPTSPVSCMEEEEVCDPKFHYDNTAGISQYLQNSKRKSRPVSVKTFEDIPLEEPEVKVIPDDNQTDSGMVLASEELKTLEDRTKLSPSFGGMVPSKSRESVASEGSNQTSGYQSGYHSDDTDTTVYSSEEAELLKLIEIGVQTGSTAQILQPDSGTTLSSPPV

[8] = molecular target: Gamma-aminobutyric acid receptor subunit alpha-1/alpha-2/beta-2/gamma-2 (Homo sapiens, UniProt P14867+P18507+P47869+P47870); format: protein-complex assay
Gamma-aminobutyric acid receptor subunit alpha-1/alpha-2/beta-2/gamma-2, sequence (P14867 whole entry): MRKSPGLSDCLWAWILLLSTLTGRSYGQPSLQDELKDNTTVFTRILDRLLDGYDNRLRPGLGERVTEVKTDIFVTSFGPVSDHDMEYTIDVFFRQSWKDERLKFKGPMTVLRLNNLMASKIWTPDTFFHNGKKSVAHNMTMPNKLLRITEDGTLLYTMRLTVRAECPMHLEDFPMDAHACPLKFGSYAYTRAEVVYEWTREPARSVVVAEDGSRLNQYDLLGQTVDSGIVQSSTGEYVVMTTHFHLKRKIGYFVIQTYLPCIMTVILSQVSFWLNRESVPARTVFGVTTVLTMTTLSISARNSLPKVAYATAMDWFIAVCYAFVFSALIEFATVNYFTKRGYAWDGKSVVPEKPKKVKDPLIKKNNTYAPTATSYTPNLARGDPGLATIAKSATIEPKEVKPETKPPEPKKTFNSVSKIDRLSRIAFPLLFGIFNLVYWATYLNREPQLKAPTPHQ
Gamma-aminobutyric acid receptor subunit alpha-1/alpha-2/beta-2/gamma-2, sequence (P47870 whole entry): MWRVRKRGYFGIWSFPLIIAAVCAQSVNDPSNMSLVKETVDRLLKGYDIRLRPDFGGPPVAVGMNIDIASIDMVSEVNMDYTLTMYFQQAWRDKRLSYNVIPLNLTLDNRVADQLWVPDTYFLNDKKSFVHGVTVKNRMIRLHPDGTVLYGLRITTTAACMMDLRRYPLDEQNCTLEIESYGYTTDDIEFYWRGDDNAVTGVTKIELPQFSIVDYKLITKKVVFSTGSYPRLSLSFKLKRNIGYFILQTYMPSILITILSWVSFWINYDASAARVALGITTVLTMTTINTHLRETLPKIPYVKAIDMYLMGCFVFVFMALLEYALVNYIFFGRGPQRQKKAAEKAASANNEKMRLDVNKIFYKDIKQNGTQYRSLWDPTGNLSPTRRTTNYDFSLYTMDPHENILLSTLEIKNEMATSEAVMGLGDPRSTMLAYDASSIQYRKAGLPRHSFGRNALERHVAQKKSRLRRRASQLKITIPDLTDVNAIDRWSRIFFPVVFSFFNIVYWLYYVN
Gamma-aminobutyric acid receptor subunit alpha-1/alpha-2/beta-2/gamma-2, sequence (P18507 whole entry): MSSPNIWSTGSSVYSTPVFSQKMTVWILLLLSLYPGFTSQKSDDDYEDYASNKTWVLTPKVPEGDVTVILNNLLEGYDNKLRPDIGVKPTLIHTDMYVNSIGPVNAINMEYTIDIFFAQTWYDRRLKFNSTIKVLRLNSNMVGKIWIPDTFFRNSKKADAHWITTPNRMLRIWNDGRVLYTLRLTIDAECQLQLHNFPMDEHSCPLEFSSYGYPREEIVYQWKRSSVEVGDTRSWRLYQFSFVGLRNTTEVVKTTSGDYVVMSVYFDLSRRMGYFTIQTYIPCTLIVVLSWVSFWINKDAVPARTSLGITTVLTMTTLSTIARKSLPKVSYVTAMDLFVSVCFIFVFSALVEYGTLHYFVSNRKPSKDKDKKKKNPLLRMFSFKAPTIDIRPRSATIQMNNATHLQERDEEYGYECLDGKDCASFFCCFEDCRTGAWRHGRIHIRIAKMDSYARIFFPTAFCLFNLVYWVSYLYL
Gamma-aminobutyric acid receptor subunit alpha-1/alpha-2/beta-2/gamma-2, sequence (P47869 whole entry): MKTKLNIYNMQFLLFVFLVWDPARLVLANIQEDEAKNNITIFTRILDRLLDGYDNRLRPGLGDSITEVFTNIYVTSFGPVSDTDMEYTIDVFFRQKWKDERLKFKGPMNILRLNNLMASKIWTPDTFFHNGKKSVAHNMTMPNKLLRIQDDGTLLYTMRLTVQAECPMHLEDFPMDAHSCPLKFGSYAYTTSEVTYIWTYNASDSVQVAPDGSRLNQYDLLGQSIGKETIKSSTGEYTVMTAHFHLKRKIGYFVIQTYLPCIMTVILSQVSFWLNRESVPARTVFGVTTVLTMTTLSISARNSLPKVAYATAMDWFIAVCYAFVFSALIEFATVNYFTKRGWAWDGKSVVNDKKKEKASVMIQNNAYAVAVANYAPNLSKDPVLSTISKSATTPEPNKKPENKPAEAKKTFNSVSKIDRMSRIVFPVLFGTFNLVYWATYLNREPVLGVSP

[9] = molecular target: Histamine H2 receptor (Homo sapiens, UniProt P25021)
Histamine H2 receptor, sequence (P25021 whole entry): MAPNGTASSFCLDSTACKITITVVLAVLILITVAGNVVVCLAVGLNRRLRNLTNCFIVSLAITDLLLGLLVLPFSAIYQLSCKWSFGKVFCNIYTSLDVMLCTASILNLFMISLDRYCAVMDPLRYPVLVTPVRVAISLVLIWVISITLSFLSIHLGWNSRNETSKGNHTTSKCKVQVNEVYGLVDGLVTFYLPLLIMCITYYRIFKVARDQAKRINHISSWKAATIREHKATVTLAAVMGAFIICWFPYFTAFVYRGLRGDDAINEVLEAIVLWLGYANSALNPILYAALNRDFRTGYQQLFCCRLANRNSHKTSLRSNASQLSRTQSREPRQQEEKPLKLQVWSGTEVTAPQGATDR
Further: assay procedure not described here.

O=C1Nc2ccc(Cl)cc2[C@@](C#CC2CC2)(C(F)(F)F)O1 [EFAVIRENZ]
AC50 [1]: > 30 µM | AC50 [2]: > 30 µM | AC50 [3]: > 30 µM

CO[C@H]1C[C@@H]2CC[C@@H](C)[C@@](O)(O2)C(=O)C(=O)N2CCCC[C@H]2C(=O)O[C@H]([C@H](C)C[C@@H]2CC[C@@H](O)[C@H](OC)C2)CC(=O)[C@H](C)/C=C(\C)[C@@H](O)[C@@H](OC)C(=O)[C@H](C)C[C@H](C)/C=C/C=C/C=C/1C [SIROLIMUS]
AC50 [2]: > 30 µM | AC50 [4]: > 30 µM | AC50 [5]: > 30 µM | AC50 [6]: > 30 µM

C[N+]1(C)CCC(OC(=O)C(O)(c2ccccc2)C2CCCC2)C1 (stereo unspecified) [GLYCOPYRRONIUM BROMIDE]
AC50 [2]: > 30 µM

CN1C(C(=O)Nc2ccccn2)=C(O)c2sc(Cl)cc2S1(=O)=O [LORNOXICAM]
AC50 [2]: > 30 µM

Cc1cn([C@H]2C=C[C@@H](CO)O2)c(=O)[nH]c1=O [STAVUDINE]
AC50 [7]: > 30 µM | AC50 [8]: > 30 µM | AC50 [4]: > 30 µM | AC50 [5]: > 30 µM | AC50 [9]: > 10 µM | AC50 [6]: > 30 µM

CC[N+]1(C)[C@@H]2CC(OC(=O)[C@H](CO)c3ccccc3)C[C@H]1[C@@H]1O[C@@H]12 (stereo partly specified) [OXITROPIUM]
AC50 [8]: > 30 µM

CCC(C)n1ncn(-c2ccc(N3CCN(c4ccc(OCC5COC(Cn6cncn6)(c6ccc(Cl)cc6Cl)O5)cc4)CC3)cc2)c1=O (stereo unspecified) [ITRACONAZOLE]
AC50 [2]: > 30 µM | AC50 [4]: > 30 µM | AC50 [5]: > 30 µM | AC50 [9]: > 10 µM | AC50 [6]: > 30 µM

Cc1ccc(-c2cc(C(F)(F)F)nn2-c2ccc(S(N)(=O)=O)cc2)cc1 [CELECOXIB]
AC50 [2]: > 30 µM | AC50 [4]: > 30 µM | AC50 [5]: > 30 µM | AC50 [9]: > 10 µM | AC50 [6]: > 30 µM

Clc1ccc2nsnc2c1NC1=NCCN1 [TIZANIDINE]
AC50 [2]: > 30 µM | AC50 [4]: > 30 µM | AC50 [5]: > 30 µM | AC50 [9]: > 10 µM | AC50 [6]: > 30 µM

CCC1=C(C)CN(C(=O)NCCc2ccc(S(=O)(=O)NC(=O)N[C@H]3CC[C@H](C)CC3)cc2)C1=O [GLIMEPIRIDE]
AC50 [8]: > 30 µM | AC50 [3]: > 30 µM

C=CCc1ccccc1OCC(O)CNC(C)C (stereo unspecified) [ALPRENOLOL]
AC50 [8]: > 0.3 µM

CS(=O)(=O)c1ccc(C2=C(c3ccccc3)C(=O)OC2)cc1 [ROFECOXIB]
AC50 [8]: > 30 µM | AC50 [4]: > 30 µM | AC50 [5]: > 30 µM | AC50 [9]: > 10 µM | AC50 [6]: > 30 µM

O=C(CCNNC(=O)c1ccncc1)NCc1ccccc1 [NIALAMIDE]
AC50 [8]: > 30 µM

OCCN1C[C@H](O)[C@@H](O)[C@H](O)[C@H]1CO [MIGLITOL]
AC50 [8]: > 30 µM

C[C@]12CCC(=O)C=C1CC[C@@H]1[C@@H]2[C@@H](O)C[C@@]2(C)[C@H]1CC[C@]2(O)C(=O)CO [HYDROCORTISONE]
AC50 [4]: > 30 µM | AC50 [5]: > 30 µM | AC50 [9]: > 10 µM | AC50 [6]: > 30 µM

CNC(=O)c1ccccc1Sc1ccc2c(/C=C/c3ccccn3)n[nH]c2c1 [AXITINIB]
AC50 [3]: > 10 µM

COc1cc(NC(C)CCCN)c2ncccc2c1 (stereo unspecified) [PRIMAQUINE]
AC50 [2]: 6.7 µM

CN(C)/N=N/c1[nH]cnc1C(N)=O [DACARBAZINE]
AC50 [2]: > 10 µM

CC[C@H]1OC(=O)[C@H](C)[C@@H](O[C@H]2C[C@@](C)(OC)[C@@H](O)[C@H](C)O2)[C@H](C)[C@@H](O[C@@H]2O[C@H](C)C[C@H](N(C)C)[C@H]2O)[C@](C)(O)C[C@@H](C)CN(C)[C@H](C)[C@@H](O)[C@]1(C)O [AZITHROMYCIN]
AC50 [2]: > 30 µM | AC50 [4]: > 30 µM | AC50 [5]: > 30 µM | AC50 [9]: > 10 µM | AC50 [6]: > 30 µM

CC[C@H]1[C@@H](O)[C@@H]2[C@H](CC[C@]3(C)[C@@H]([C@H](C)CCC(=O)O)CC[C@@H]23)[C@@]2(C)CC[C@@H](O)C[C@@H]12 [OBETICHOLIC ACID]
AC50 [2]: > 30 µM | AC50 [8]: > 30 µM

Oc1c(Cl)cc(Cl)c2cccnc12 [CHLOROXINE]
AC50 [8]: > 30 µM

CCCCN1C[C@H](O)[C@@H](O)[C@H](O)[C@H]1CO
AC50 [2]: > 30 µM

CC(=O)N[C@@H]1[C@@H](O)[C@H](O)[C@@H](CO)O[C@H]1O [N-ACETYLGLUCOSAMINE]
AC50 [8]: > 30 µM

CCOC(=O)[C@H](CCc1ccccc1)N[C@@H](C)C(=O)N1[C@H](C(=O)O)C[C@@H]2CCC[C@@H]21
AC50 [2]: > 30 µM | AC50 [4]: > 30 µM | AC50 [5]: > 30 µM | AC50 [9]: > 10 µM | AC50 [6]: > 30 µM

N[C@H](C(=O)O)[C@H](O)c1ccc(O)c(O)c1 [DROXIDOPA]
AC50 [8]: > 30 µM

CCCCCCOc1nsnc1C1=CCCN(C)C1 [XANOMELINE]
AC50 [8]: > 30 µM

O=C(O)c1cc(O)ccc1O [GENTISIC ACID]
AC50 [8]: > 30 µM

CC(C)(S)[C@@H](N)C(=O)O [PENICILLAMINE]
AC50 [8]: > 30 µM

CC(=O)Nc1ccc(O)cc1 [ACETAMINOPHEN]
AC50 [8]: > 30 µM

COCCCN1CCC(NC(=O)c2cc(Cl)c(N)c3c2OCC3)CC1 [PRUCALOPRIDE]
AC50 [3]: > 30 µM

COc1cc2nc(N(C)CCCNC(=O)C3CCCO3)nc(N)c2cc1OC (stereo unspecified) [ALFUZOSIN]
AC50 [2]: > 30 µM

CN(C)CCN1C(=O)c2ccccc2N(C)c2ccccc21 [DIBENZEPIN]
AC50 [8]: > 30 µM

CCOC(=O)[C@H](CCc1ccccc1)N[C@@H](C)C(=O)N1[C@H](C(=O)O)C[C@H]2CCCC[C@@H]21 [TRANDOLAPRIL]
AC50 [8]: > 30 µM

Cc1cn([C@H]2C[C@H](N=[N+]=[N-])[C@@H](CO)O2)c(=O)[nH]c1=O [ZIDOVUDINE]
AC50 [2]: > 30 µM | AC50 [4]: > 30 µM | AC50 [5]: > 30 µM | AC50 [9]: > 10 µM | AC50 [6]: > 30 µM

CN(C)CCC(c1ccc(Cl)cc1)c1ccccn1 (stereo unspecified) [CHLORPHENIRAMINE]
AC50 [4]: > 30 µM | AC50 [5]: > 30 µM | AC50 [9]: 0.412 µM | AC50 [6]: > 30 µM

C[C@]12CC[C@@H]3c4ccc(O)cc4CC[C@H]3[C@@H]1C[C@@H](O)[C@@H]2O [ESTRIOL]
AC50 [8]: > 30 µM

COC(c1ccccc1)(c1ccccc1)[C@H](Oc1nc(C)cc(C)n1)C(=O)O [AMBRISENTAN]
AC50 [8]: > 30 µM

COc1ccccc1OCC(O)CN1CCN(CC(=O)Nc2c(C)cccc2C)CC1 (stereo unspecified) [RANOLAZINE]
AC50 [2]: > 30 µM

CC1=C(C(=O)O)N2C(=O)[C@@H](NC(=O)[C@H](N)c3ccccc3)[C@H]2SC1 [CEPHALEXIN ANHYDROUS]
AC50 [2]: > 30 µM | AC50 [4]: > 30 µM | AC50 [5]: > 30 µM | AC50 [9]: > 10 µM | AC50 [6]: > 30 µM

Nc1ccn([C@H]2CC[C@@H](CO)O2)c(=O)n1 [ZALCITABINE]
AC50 [2]: > 10 µM

CC(C)(C)NC[C@H](O)COc1ccccc1C1CCCC1 [PENBUTOLOL]
AC50 [8]: > 30 µM
